The values that follow come from patent publication US12351580B2, “NLRP3 modulators” (Innate Tumor Immunity, Inc., priority 2017, dated 2025).

The structures appear in SMILES notation. Where only a bound is given, the exact number is not on record here.

The assay addresses T1, TLR7 (Homo sapiens, UniProt Q9NYK1).
T1 construct: host or cells: HEK-Blue cells (human HEK) co-expressing TLR7 and an NF-kB/AP1-inducible SEAP reporter
T1 sequence (Q9NYK1 27-1049): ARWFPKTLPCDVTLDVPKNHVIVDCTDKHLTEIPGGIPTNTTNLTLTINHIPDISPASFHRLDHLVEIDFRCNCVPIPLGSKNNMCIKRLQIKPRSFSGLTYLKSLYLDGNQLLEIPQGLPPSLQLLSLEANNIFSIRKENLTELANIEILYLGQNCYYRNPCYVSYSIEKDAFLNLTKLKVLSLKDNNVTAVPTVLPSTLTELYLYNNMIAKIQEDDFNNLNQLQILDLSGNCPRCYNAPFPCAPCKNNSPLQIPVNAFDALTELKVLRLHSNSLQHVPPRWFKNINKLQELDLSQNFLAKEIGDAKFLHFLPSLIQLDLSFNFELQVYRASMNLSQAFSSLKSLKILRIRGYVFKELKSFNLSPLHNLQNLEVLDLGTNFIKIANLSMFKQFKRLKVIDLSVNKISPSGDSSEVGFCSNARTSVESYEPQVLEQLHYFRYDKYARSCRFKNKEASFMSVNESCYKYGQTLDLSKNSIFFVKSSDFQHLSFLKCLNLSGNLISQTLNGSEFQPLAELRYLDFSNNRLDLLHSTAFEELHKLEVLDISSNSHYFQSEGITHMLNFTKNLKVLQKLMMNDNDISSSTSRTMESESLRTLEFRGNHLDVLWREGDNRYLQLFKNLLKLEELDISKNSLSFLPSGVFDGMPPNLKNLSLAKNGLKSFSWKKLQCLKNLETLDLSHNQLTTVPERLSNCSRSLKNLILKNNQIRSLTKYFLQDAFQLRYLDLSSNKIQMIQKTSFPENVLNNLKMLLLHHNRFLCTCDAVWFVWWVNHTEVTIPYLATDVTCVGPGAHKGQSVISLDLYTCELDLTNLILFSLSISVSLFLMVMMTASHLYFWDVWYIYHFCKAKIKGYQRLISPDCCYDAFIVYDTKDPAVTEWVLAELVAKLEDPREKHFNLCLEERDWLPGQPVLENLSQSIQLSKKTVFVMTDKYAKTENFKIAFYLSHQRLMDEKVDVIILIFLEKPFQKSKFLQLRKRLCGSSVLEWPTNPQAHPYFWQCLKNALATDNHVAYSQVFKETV
Put plainly: In vitro human TLR7 binding reporter assay (HEK-Blue, NF-kB/AP1-inducible SEAP). The assay is classed as cell-based. Particulars: activity range symbols. A digest of the protocol: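 Reporter cells are plated at 15,000 per well and rested 24 h. Next day, test compounds or DMSO are dispensed, followed by 18 h incubation at 37 °C, 5% CO2.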
(In a reporter assay the amount or activity of a reporter protein is the signal.)
In general, EC50 refers to the concentration that produces a half-maximal response. Lower therefore signals an effect from little substance. Turning to `CN(C)C(=O)CCCn1c(CN2CCCC2=O)nc2c(N)nc3cc(Br)ccc3c21` [Compound 215], the EC50 is > 100 µM.

`COC(=O)CCCn1c(CN2CCCC2=O)nc2c(N)nc3cc(Cl)ccc3c21` [Compound 216]: the EC50 is > 100 µM.

As to `CCN(Cc1nc2c(N)nc3cc(Cl)ccc3c2n1CCCC(=O)NC)C(C)=O` [Compound 217], the concentration for a half-maximal effect (EC50) was > 100 µM.

Regarding `CCN(Cc1nc2c(N)nc3cc(Br)ccc3c2n1CCCC(=O)OC)C(C)=O` [Compound 218], the EC50 is > 100 µM.

For the compound `CCN(Cc1nc2c(N)nc3cc(Cl)ccc3c2n1CCCC(=O)OC)C(C)=O` [Compound 219], the concentration giving a half-maximal response (EC50) was > 100 µM.

In the case of `CCN(Cc1nc2c(N)nc3cc(Cl)ccc3c2n1CCCC(=O)N1CCOCC1)C(C)=O` [Compound 220], the 50% effective concentration (EC50) was > 100 µM.

In the case of `CCN(Cc1nc2c(N)nc3cc(Cl)ccc3c2n1CCCC(=O)N1CCN(C)CC1)C(C)=O` [Compound 221], the EC50 is > 100 µM.

In the case of `CCN(Cc1nc2c(N)nc3cc(Cl)ccc3c2n1CCCC(=O)N1CCCC1)C(C)=O` [Compound 222], the EC50 was > 100 µM.

For `CCN(Cc1nc2c(N)nc3ccccc3c2n1CCC(=O)N1CCS(=O)(=O)CC1)C(=O)OC(C)(C)C` [Compound 223], the EC50 lay within 20 to 100 µM.

For the compound `CCNCc1nc2c(N)nc3cc(Br)ccc3c2[nH]1` [Compound 225], the EC50 was > 100 µM.

On to `CCN(Cc1nc2c(N)nc3cc(C(F)(F)F)ccc3c2n1CCCC(=O)NC)C(=O)OC(C)(C)C` [Compound 226], for which the EC50 was > 100 µM.

Turning to `CCNCc1nc2c(N)nc3cc(C(F)(F)F)ccc3c2n1CCCC(=O)OC` [Compound 227], the EC50 fell in the range of 20 to 100 µM.

For `CCN(Cc1nc2c(N)nc3cc(C(F)(F)F)ccc3c2n1CCCC(=O)N1CCOCC1)C(=O)OC(C)(C)C` [Compound 228], the EC50 was > 100 µM.

In the case of `CCN(Cc1nc2c(N)nc3cc(C(F)(F)F)ccc3c2n1CCCC(=O)OC)C(C)=O` [Compound 229], the EC50 is > 100 µM.

In the case of `COc1ccc(-c2ccc3c(c2)nc(N)c2nc(CN4CCCC4=O)[nH]c23)cc1` [Compound 230], the EC50 was > 100 µM.

In the case of `CC(=O)NCc1nc2c(N)nc3ccccc3c2[nH]1` [Compound 233], the 50% effective concentration (EC50) is 1 to 20 µM.

`Nc1nc2ccccc2c2[nH]c(CN3CCCC3=O)nc12` [Compound 278] gave a concentration giving a half-maximal response (EC50) of 20 to 100 µM.

As to `Nc1nc2cc(-c3cccnc3)ccc2c2[nH]c(CN3CCCC3=O)nc12` [Compound 279, 1-[(4-amino-7-pyridin-3-yl-1H-imidazo[4,5-c]quinolin-2-yl)methyl]pyrrolidin-2-one], the EC50 was > 100 µM.

Consider `Nc1nc2cc(-c3ccccc3)ccc2c2[nH]c(CN3CCCC3=O)nc12` [Compound 280, 1-[(4-amino-7-phenyl-1H-imidazo[4,5-c]quinolin-2-yl)methyl]pyrrolidin-2-one], for which the EC50 is > 100 µM.

On to `Nc1nc2cc(-c3ccccc3Cl)ccc2c2[nH]c(CN3CCCC3=O)nc12` [Compound 281, 1-[[4-amino-7-(2-chlorophenyl)-1H-imidazo[4,5-c]quinolin-2-yl]methyl]pyrrolidin-2-one], for which the EC50 was > 100 µM.

On to `Cc1ccccc1-c1ccc2c(c1)nc(N)c1nc(CN3CCCC3=O)[nH]c12` [Compound 282, 1-[[4-amino-7-(2-methylphenyl)-1H-imidazo[4,5-c]quinolin-2-yl]methyl]pyrrolidin-2-one], for which the EC50 is > 100 µM.

For the compound `COc1ccccc1-c1ccc2c(c1)nc(N)c1nc(CN3CCCC3=O)[nH]c12` [Compound 283, 1-[[4-amino-7-(2-methoxyphenyl)-1H-imidazo[4,5-c]quinolin-2-yl]methyl]pyrrolidin-2-one], the EC50 is > 100 µM.

As to `Nc1nc2cc(-c3ccccc3F)ccc2c2[nH]c(CN3CCCC3=O)nc12` [Compound 284, 1-[[4-amino-7-(2-fluorophenyl)-1H-imidazo[4,5-c]quinolin-2-yl]methyl]pyrrolidin-2-one], the EC50 was > 100 µM.

Regarding `Nc1nc2cc(-c3cccc(Cl)c3)ccc2c2[nH]c(CN3CCCC3=O)nc12` [Compound 285, 1-[[4-amino-7-(3-chlorophenyl)-1H-imidazo[4,5-c]quinolin-2-yl]methyl]pyrrolidin-2-one], the EC50 was > 100 µM.

`Cc1cccc(-c2ccc3c(c2)nc(N)c2nc(CN4CCCC4=O)[nH]c23)c1` [Compound 286, 1-[[4-amino-7-(3-methylphenyl)-1H-imidazo[4,5-c]quinolin-2-yl]methyl]pyrrolidin-2-one]: the concentration giving a half-maximal response (EC50) was > 100 µM.

As for `COc1cccc(-c2ccc3c(c2)nc(N)c2nc(CN4CCCC4=O)[nH]c23)c1` [Compound 287, 1-[[4-amino-7-(3-methoxyphenyl)-1H-imidazo[4,5-c]quinolin-2-yl]methyl]pyrrolidin-2-one], the EC50 was > 100 µM.

For `N#Cc1cccc(-c2ccc3c(c2)nc(N)c2nc(CN4CCCC4=O)[nH]c23)c1` [Compound 288, 3-[4-amino-2-[(2-oxopyrrolidin-l-yl)methyl]-1H-imidazo[4,5-c]quinolin-7-yl]benzonitrile], the concentration for a half-maximal effect (EC50) is > 100 µM.

As for `Nc1nc2cc(-c3cccc(F)c3)ccc2c2[nH]c(CN3CCCC3=O)nc12` [Compound 289, 1-[[4-amino-7-(3-fluorophenyl)-1H-imidazo[4,5-c]quinolin-2-yl]methyl]pyrrolidin-2-one], the EC50 was > 100 µM.

As for `Cc1ccc(-c2ccc3c(c2)nc(N)c2nc(CN4CCCC4=O)[nH]c23)cc1` [Compound 291, 1-[[4-amino-7-(4-methylphenyl)-1H-imidazo[4,5-c]quinolin-2-yl]methyl]pyrrolidin-2-one], the EC50 is > 100 µM.

`Nc1nc2cc(Br)ccc2c2[nH]c(CN3CCCC3=O)nc12` [Compound 294, 1-[(4-amino-7-bromo-1H-imidazo[4,5-c]quinolin-2-yl)methyl]pyrrolidin-2-one] registered an EC50 of 20 to 100 µM.

Consider `Nc1nc2cc(-n3cccn3)ccc2c2[nH]c(CN3CCCC3=O)nc12` [Compound 295, 1-[(4-amino-7-pyrazol-1-yl-1H-imidazo[4,5-c]quinolin-2-yl)methyl]pyrrolidin-2-one], for which the EC50 was > 100 µM.

Take `Cc1cnn(-c2ccc3c(c2)nc(N)c2nc(CN4CCCC4=O)[nH]c23)c1` [Compound 296, 1-[[4-amino-7-(4-methylpyrazol-1-yl)-1H-imidazo[4,5-c]quinolin-2-yl]methyl]pyrrolidin-2-one]: the EC50 was > 100 µM.

Turning to `Nc1nc2cc(C3CCOCC3)ccc2c2[nH]c(CN3CCCC3=O)nc12` [Compound 298, 1-[[4-amino-7-(oxan-4-yl)-1H-imidazo[4,5-c]quinolin-2-yl]methyl]pyrrolidin-2-one], the EC50 was in the range of 1 to 20 µM.

In the case of `Cc1ccn(-c2ccc3c(c2)nc(N)c2nc(CN4CCCC4=O)[nH]c23)n1` [Compound 301, 1-[[4-amino-7-(3-methylpyrazol-1-yl)-1H-imidazo[4,5-c]quinolin-2-yl]methyl]pyrrolidin-2-one], the EC50 was > 100 µM.

As to `Nc1nc2cc(C3CCCCC3)ccc2c2[nH]c(CN3CCCC3=O)nc12` [Compound 302, 1-[(4-amino-7-cyclohexyl-1H-imidazo[4,5-c]quinolin-2-yl)methyl]pyrrolidin-2-one], the EC50 was > 100 µM.

The compound `CC(c1nc2c(N)nc3cc(Br)ccc3c2[nH]1)N1CCCC1=O` (stereo not drawn) [Compound 303, 1-[1-(4-amino-7-bromo-1H-imidazo[4,5-c]quinolin-2-yl)ethyl]pyrrolidin-2-one] gave an EC50 of 20 to 100 µM.
